Measurements: patent US20090010873A1, “Methods of Cell Therapy, Neurogenesis and Oligodendrogenesis” (YEDA RESEARCH AND DEVELOPMENT CO. LTD., priority 2004, published 2009)

Assays:
[1] = system: microglia; test: TNF-α and IGF-I expression in treated microglia (RT-PCR, Q-PCR, immunocytochemistry); type: cell-based, mouse
Experimental: (v) RNA purification, cDNA synthesis, and reverse-transcription PCR analysis. Cells were lysed with TRI reagent (MRC, Cincinnati, Ohio), and total cellular RNA was purified from lysates using the RNeasy kit (Qiagen, Hilden, Germany) according to the manufacturer's instructions. Residual genomic DNA was removed during the purification process by incubation with RNase-free DNase (Qiagen). RNA was stored in RNase-free water (Qiagen) at −80° C. RNA (1 μg) was converted to cDNA using SuperScript II ([…], Madison, Wis.), as recommended by the manufacturer. The cDNA mixture was diluted 1:5 with PCR-grade water.
We assayed the expression of specific mRNAs using semi-quantitative reverse transcription PCR(RT-PCR) with selected gene-specific primer pairs, using OLIGO v6.4 (Molecular Biology Insights, Cascade, Colo.).
The RT-PCR reactions were carried out using 1 μg of cDNA, […] of each primer, and ReadyMix PCR Master Mix (ABgene, Epsom, UK) in 30-μl reactions. PCR reactions were carried out in an Eppendorf PCR system with cycles (usually 25-30) of 95° C. for 30 s, 60° C. for 1 min, 72° C. for 1 min, and 72° C. for 5 min, and then kept at 4° C. As an internal standard for the amount of cDNA synthesized, we used β-actin mRNA. PCR products were subjected to agarose gel analysis and visualized by ethidium bromide staining. Signals were quantified using a Gel-Pro analyzer 3.1 (Media Cybernetics).
(xxiv) Real-time quantitative PCR analysis. Total cellular RNA purification and cDNA synthesis was performed as described in section (v) of Example 1 above. We assayed the expression of specific mRNAs using real-time quantitative PCR (Q-PCR) with selected gene-specific primer pairs. Q-PCR reactions were performed with a high-speed thermal cycler (LightCycler; Roche Diagnostics), and the product was detected by FastStart Master SYBR Green I (Roche Molecular Biochemicals) according to the manufacturer's instructions. The amplification cycle was 95° C. for 10 s, 60° C. for 5 s, and 72° C. for 10 s. The primers used were: […]

[2] = system: neural progenitor cells (NPCs); test: NPCs co-cultured with microglia pre-activated by aggregated Aβ and cytokines (β-III-tubulin); type: cell-based, mouse; conditions: 10 days co-culture; Aβ 5 μM, IFN-γ 10 ng/ml
Experimental: (xlvi) Reagents. Recombinant mouse IFN-γ and IL-4 (both containing endotoxin at a concentration below 0.1 ng/μg cytokine) were obtained from R&D Systems (Minneapolis, Minn.). β-amyloid peptides [amyloid protein fragment 1-40 and 1-42 (Aβ1-40/1-42)] were purchased from Sigma-Aldrich, St. Louis, Mo. The Aβ peptides were dissolved in endotoxin-free water, and Aβ aggregates were formed by incubation of Aβ, as described (Ishii et al., 2000).
(li) Neural progenitor cell culture. Coronal sections (2 mm thick) of tissue containing the subventricular zone of the lateral ventricle were obtained from the brains of adult C57B1/6J mice. The tissue was minced and then incubated for digestion at 37° C., 5% CO2 for 45 min in Earle's balanced salt solution containing 0.94 mg/ml papain (Worthington, Lakewood, N.J.) and 0.18 mg/ml of L-cysteine and EDTA. After centrifugation at 110×g for 15 min at room temperature, the tissue was mechanically dissociated by pipette trituration. Cells obtained from single-cell suspensions were plated (3500 cells/cm^2) in 75-cm^2 Falcon tissue-culture flasks (BD Biosciences, San Diego, Calif.), in NPC-culturing medium [Dulbecco's modified Eagles's medium (DMEM)/F12 medium (Gibco/Invitrogen, Carlsbad, Calif.) containing 2 mM L-glutamine, 0.6% glucose, 9.6 μg/ml putrescine, 6.3 ng/ml progesterone, 5.2 ng/ml sodium selenite, 0.02 mg/ml insulin, 0.1 mg/ml transferrin, 2 μg/ml heparin (all from Sigma-Aldrich, Rehovot, Israel), fibroblast growth factor-2 (human recombinant, 20 ng/ml), and epidermal growth factor (human recombinant, 20 ng/ml; both from Peprotech, Rocky Hill, N.J.)]. Spheres were passaged every 4-6 days and replated as single cells. Green fluorescent protein (GFP)-expressing NPCs were obtained as previously described (Pluchino et al., 2003).
(lii) Primary microglial culture. Brains from neonatal (P0-P1) C57B1/6J mice were stripped of their meninges and minced with scissors under a dissecting microscope (Zeiss, Stemi DV4, Germany) in Leibovitz-15 medium (Biological Industries, Kibbutz Beit Ha-Emek, Israel). […]

IFN-γ
expression of IGF-I in microglia (Q-PCR) ([1]; 10 ng/ml, 24 h): no effect | expression of IGF-I in microglia (Q-PCR) ([1]; 100 ng/ml, 24 h): completely arrested | IGF-I production/expression by microglia ([1]; RT-PCR time course and immunocytochemistry, IL-4 10 ng/ml, IFN-γ 20 ng/ml, LPS 100 ng/ml): down-regulation of IGF-I | TNF-α production by microglia ([1]; RT-PCR time course, IFN-γ 20 ng/ml): transient increase | TNF-α production in microglia (Q-PCR) ([1]; high-dose IFN-γ (100 ng/ml), 24 h): induced | GFP^+/βIIIT^+ cells (neurogenesis) with microglia activated by the agent [2]: dramatic
